≈ marks a conversion by molar mass, not a printed value.
What was measured:
[1] = tested on: Lymphocytic leukemia P-388 tumor cells; assay: Therapeutic effect upon lymphocytic leukemia P-388 tumor; assay type: in vivo, CDF1 male mice; details: 24 hours after transplantation
Description: Lymphocytic leukemia P-388 tumor cells (1×10^6 cells) were transplanted intraperitoneally into each of five CDF1 male mice weighing about 22 grams. Twenty-four hours after transplantation, 0.2 ml of a PBS (phosphate-buffered saline) solution of DC 113 was intraperitoneally administered to each mouse. For comparison, 0.2 ml of a PBS solution of mitomycin C was intraperitoneally administered to each of five mice 24 hours after transplantation. The life-prolonging effect of DC 113 thus established is shown below in Table 2 in terms of the T/C ratio [T mean number of days of survival after transplantation in the DC 113 group; C=mean number of days of survival after transplantation in the control group (intraperitoneally given 0.2 ml of PBS)].

[2] = Stability compared with DC-88A; assay type: physicochemical; details: relative to known compound DC-88A
Acute toxicity (LD50) = details: mouse, in vivo; intravenous, mice
[3] = tested on: Klebsiella pneumoniae ATCC 10031; assay: Antimicrobial activity, MIC by agar dilution method (pH 7.0); assay type: cell-based; details: ATCC10031, read-out: Minimum inhibitory concentration (MIC)
Description: (§1) Minimum inhibitory concentrations (MIC) against various bacteria were determined by the agar dilution method (pH 7.0).

[4] = tested on: Bacillus subtilis No. 10707; assay: as above; assay type: cell-based; details: read-out: Minimum inhibitory concentration (MIC)
Description: as §1

Escherichia coli ATCC 26 = assay: as above; assay type: cell-based; details: ATCC26, read-out: Minimum inhibitory concentration (MIC)
Description: as §1

[5] = tested on: Salmonella typhosa ATCC 9992; assay: as above; assay type: cell-based; details: Salmonella enterica, read-out: Minimum inhibitory concentration (MIC)
Description: as §1

[6] = tested on: Staphylococcus aureus ATCC 6538P; assay: as above; assay type: cell-based; details: ATCC6538P, read-out: Minimum inhibitory concentration (MIC)
Description: as §1

Solubility = assay type: physicochemical

SMILES | Life-prolonging effect (T/C) ([1]; 6 mg/kg i.p.) | Stability [2] | Life-prolonging effect (T/C) ([1]; 0.0063 mg/kg i.p.) | Life-prolonging effect (T/C) ([1]; 0.013 mg/kg i.p.) | LD50 (Acute toxicity (LD50)) [mg/kg] | MIC [3] [µg/mL] | MIC [4] [µg/mL] | MIC (Escherichia coli ATCC 26) [µg/mL] | MIC [5] [µg/mL] | MIC [6] [µg/mL] | Solubility (Solubility; in chloroform, DMSO, methanol, ethyl acetate and acetone) | Solubility (Solubility; in water and n-hexane)
CO[C@@]12[C@H](COC(N)=O)C3=C(C(=O)C(C)=C(N)C3=O)N1C[C@@H]1N[C@@H]12 [Mitomycin C, mitomycin C, reference compound] | 151 | – | – | – | – | – | – | – | – | – | – | –
COC(=O)c1cc2c([nH]1)C(=O)C=C1N(C(=O)c3cc4cc(OC)c(OC)c(OC)c4[nH]3)CC3CC123 (stereo not drawn) [DC 113] | – | more stable than the known compound DC-88A | 130 | 110 | 0.14 | 0.021 (≈ 0.044 µM) | 0.00065 (≈ 0.00136 µM) | 0.064 (≈ 0.134 µM) | 0.1 (≈ 0.209 µM) | 0.0013 (≈ 0.00272 µM) | Soluble | sparingly soluble
